From the CheMixHub ionic liquid set

Assay: xn = mol fraction of the nth substance listed

CC(N)C(=O)[O-].COCCCCn1cc[n+](C)c1 + CS(C)=O
100 kPa
Settings	viscosity [mPa·s]
288.15 K, x1 = 0.1996	11.74
288.15 K, x1 = 0.3012	22.04
288.15 K, x1 = 0.5996	96.5
288.15 K, x1 = 0.8997	304
293.15 K, x1 = 0.1996	11.35
293.15 K, x1 = 0.3012	19.11
293.15 K, x1 = 1	266
298.15 K, x1 = 0.1996	8.85
303.15 K, x1 = 0.1996	7.37
303.15 K, x1 = 0.5996	41.72
308.15 K, x1 = 0.3985	16.23
308.15 K, x1 = 0.5996	33.51
308.15 K, x1 = 0.6966	44.96
308.15 K, x1 = 0.7973	60.65
313.15 K, x1 = 0.6966	36.01
318.15 K, x1 = 0.1009	3.18
318.15 K, x1 = 0.4922	15.18
318.15 K, x1 = 0.5996	21.68
318.15 K, x1 = 0.7973	37.1

O=C(O)CC(O)(CC(=O)O)C(=O)O + C[N+](C)(C)Cc1ccccc1.[Cl-]
101 kPa, x2 = 0.5
Settings	electrical conductivity [S/m]	viscosity [mPa·s]
293.15 K	3.3e-05	–
298.09 K	3.9e-05	–
303.11 K	0.000162	–
308.2 K	0.000519	–
312.91 K	–	237000
313.21 K	0.00111	–
318.06 K	0.001906	–
327.86 K	–	52100
328.14 K	0.005576	–
333.12 K	0.009475	–

CCCC[N+]1(C)CCCC1.O=S(=O)([O-])C(F)(F)F + O
100 kPa
Settings	electrical conductivity [S/m]	viscosity [mPa·s]
288.15 K, x2 = 0.0597	0.147	241.7
288.15 K, x2 = 0.3197	0.297	98.4
288.15 K, x2 = 0.3766	0.344	81.5
288.15 K, x2 = 0.7673	1.04	18.66
293.15 K, x2 = 0.3197	0.368	76.9
293.15 K, x2 = 0.8612	1.72	8.54
298.15 K, x2 = 0.0597	0.238	138.8
298.15 K, x2 = 0.3766	0.521	51.2
298.15 K, x2 = 0.6794	1.15	18.33
298.15 K, x2 = 0.7673	1.51	12.54
298.15 K, x2 = 0.95	2.4	2.88
303.15 K, x2 = 0.3766	0.623	41.65
303.15 K, x2 = 0.95	2.77	2.49
308.15 K, x2 = 0.1203	0.415	72.5
308.15 K, x2 = 0.3766	0.736	34.31
313.15 K, x2 = 0.1956	0.581	47.98
313.15 K, x2 = 0.5819	1.42	15.25
318.15 K, x2 = 0.1203	0.586	48.5
318.15 K, x2 = 0.3197	0.89	28.23
323.15 K, x2 = 0.0597	0.612	46.94
323.15 K, x2 = 0.1956	0.795	33.42
323.15 K, x2 = 0.5819	1.87	11.25
323.15 K, x2 = 0.6794	2.43	8.12
323.15 K, x2 = 0.95	4.45	1.52
328.15 K, x2 = 0.3766	1.31	17.72
333.15 K, x2 = 0.5819	2.41	8.59

O=S(=O)([N-]S(=O)(=O)C(F)(F)F)C(F)(F)F.[Li+] + O
Settings	electrical conductivity [S/m]	viscosity [mPa·s]
267.18 K, 100 kPa, x2 = 0.8271	1.02	–
272.15 K, 100 kPa, x2 = 0.8855	2.04	–
282.32 K, 100 kPa, x2 = 0.7538	0.699	–
283 K, 101 kPa, x1 = 0.2649	0.62	–
288.36 K, 100 kPa, x2 = 0.7538	0.861	–
292.1 K, 100 kPa, x1 = 0.0039	0.966	–
292.3 K, 100 kPa, x2 = 0.8065	1.98	–
293 K, 100 kPa, x1 = 0.25	–	23.6
293 K, 101 kPa, x1 = 0.2649	0.89	69.2
296.88 K, 100 kPa, x2 = 0.8271	2.71	–
298 K, 101 kPa, x1 = 0.005377	1.2	1.11
298 K, 101 kPa, x1 = 0.05933	5.79	3.11
298 K, 101 kPa, x1 = 0.112	–	5.56
298 K, 101 kPa, x1 = 0.1134	4.7	–
298 K, 101 kPa, x1 = 0.1778	2.99	–
298 K, 101 kPa, x1 = 0.2128	2.2	22.22
298 K, 101 kPa, x1 = 0.2639	0.97	–
298 K, 101 kPa, x1 = 0.2649	–	51.3
298.1 K, 101 kPa, x1 = 0.2649	1.04	55.3
298.15 K, 100 kPa, x1 = 0.112	–	5.2
298.15 K, 100 kPa, x1 = 0.1896	–	15.8
298.15 K, 100 kPa, x1 = 0.2333	–	30.7
298.15 K, 100 kPa, x1 = 0.2547	–	42.3
298.15 K, 100 kPa, x1 = 0.2741	–	54.1
301.65 K, 100 kPa, x2 = 0.8271	3.13	–
302.07 K, 100 kPa, x2 = 0.7538	1.38	–
302.07 K, 100 kPa, x2 = 0.9148	5.85	–
302.88 K, 100 kPa, x2 = 0.8495	4.06	–
303 K, 101 kPa, x1 = 0.2649	1.22	45.4
307.05 K, 100 kPa, x2 = 0.8065	2.85	–
307.24 K, 100 kPa, x2 = 0.9761	4.9	–
308.08 K, 100 kPa, x2 = 0.7538	1.61	–
308.15 K, 100 kPa, x1 = 0.112	–	4.3
308.15 K, 100 kPa, x1 = 0.1896	–	11.5
308.15 K, 100 kPa, x1 = 0.2333	–	21.5
308.15 K, 100 kPa, x1 = 0.2547	–	29
308.15 K, 100 kPa, x1 = 0.2741	–	36.1
312.24 K, 100 kPa, x2 = 0.8065	3.3	–
312.86 K, 100 kPa, x2 = 0.6988	0.916	–
313 K, 101 kPa, x1 = 0.2649	1.6	30.9
315.76 K, 100 kPa, x2 = 0.7857	2.85	–
317.41 K, 100 kPa, x2 = 0.8271	4.37	–
317.41 K, 100 kPa, x2 = 0.8495	5.49	–
318.15 K, 100 kPa, x1 = 0.112	–	3.4
318.15 K, 100 kPa, x1 = 0.1896	–	8.6
318.15 K, 100 kPa, x1 = 0.2333	–	15.8
318.15 K, 100 kPa, x1 = 0.2547	–	20.9
318.15 K, 100 kPa, x1 = 0.2741	–	25.5
318.47 K, 100 kPa, x2 = 0.6988	1.07	–
320.96 K, 100 kPa, x2 = 0.7857	3.2	–
321.15 K, 100 kPa, x2 = 0.9761	6.42	–
322.41 K, 100 kPa, x2 = 0.7538	2.29	–
323 K, 101 kPa, x1 = 0.2649	2.04	21.8
327.61 K, 100 kPa, x2 = 0.8271	5.33	–
327.8 K, 100 kPa, x2 = 0.6988	1.36	–
328.15 K, 100 kPa, x1 = 0.112	–	2.8
328.15 K, 100 kPa, x1 = 0.1896	–	6.6
328.15 K, 100 kPa, x1 = 0.2333	–	12
328.15 K, 100 kPa, x1 = 0.2547	–	15.6
328.15 K, 100 kPa, x1 = 0.2741	–	18.7
329.06 K, 100 kPa, x2 = 0.7857	3.73	–
331.74 K, 100 kPa, x2 = 0.8271	5.85	–
331.96 K, 100 kPa, x2 = 0.8065	4.85	–
332.16 K, 100 kPa, x2 = 0.8855	8.87	–
332.58 K, 100 kPa, x2 = 0.9148	10.1	–
333 K, 100 kPa, x2 = 0.7538	2.85	–
333 K, 100 kPa, x2 = 0.8495	7.06	–
333 K, 101 kPa, x1 = 0.2649	2.58	16.2
334.65 K, 100 kPa, x2 = 0.7857	4.15	–
336.52 K, 100 kPa, x2 = 0.8855	9.74	–
339.84 K, 100 kPa, x2 = 0.7857	4.6	–
341.52 K, 100 kPa, x2 = 0.8271	6.77	–
341.94 K, 100 kPa, x1 = 0.0039	2.36	–
342.13 K, 100 kPa, x2 = 0.6601	1.19	–
342.75 K, 100 kPa, x2 = 0.8065	5.73	–
343.17 K, 100 kPa, x2 = 0.7538	3.44	–
347.11 K, 100 kPa, x1 = 0.0039	2.52	–
347.33 K, 100 kPa, x2 = 0.6988	2.11	–
347.53 K, 100 kPa, x2 = 0.9761	9.34	–
347.94 K, 100 kPa, x2 = 0.8495	8.69	–
352.3 K, 100 kPa, x2 = 0.8855	11.8	–
352.92 K, 100 kPa, x2 = 0.8065	6.69	–
356.24 K, 100 kPa, x2 = 0.7857	5.78	–
357.3 K, 100 kPa, x2 = 0.8855	12.1	–
357.7 K, 100 kPa, x2 = 0.9148	13.9	–
